Reference: patent US7585892B2, “Compound for promoting the growth of neural cells” (Naturewise Biotech & Medicals Corporation, priority 2006, dated 2009)

Key:
Format in all cases: cell-based, Wistar rat
[1] = system: cortical neurons; assay: Survival of cortical neurons, MTT assay (Example 2); conditions: 300 cells/mm^2, 5 days, vs DMSO control
Procedure: (§1) Cells obtained from the suspension prepared in Example 1 were cultivated in 6-well plates coated with 30 μg/ml of poly-D-lysine (Sigma) at 300 cells/mm^2 and cultivated at 37° C., 5% CO2 and 95% relative humidity. The growth media contained compounds A, B, D, E, F, G, and H respectively and the growth media added with 5 μl of DMSO were used as control. The differentiated cells after cultivation were categorically called cortical neurons.
The experiments were repeated three times. After cultivating for 5 days, live cells were counted by a known cell-counting method (MTT assay) and the absorbance was read at 540 nm.

[2] = system: cortical neurons; assay: Neurite length of cortical neurons at low cellular density (Example 4); conditions: 38 cells/mm^2, 5 days, control cells all dead
Procedure: as §1, with “cultivated at a density of 38 cells/mm^2” for “cultivated”, “μg/ml” for “μg/ml of”, “(Sigma)” for “(Sigma) at 300 cells/mm^2 and cultivated”, “D,” for “D, E, F, G,”, “G” for “H”, “are” for “after cultivation were”
The experiments were repeated three times. After cultivating for 5 days, the cells were observed under microscope and the length of the neurites was measured.

[3] = system: neural stem cells; assay: Differentiation of NSCs from neurospheres, MAP-2 immunofluorescent staining (Example 5); conditions: added in the beginning, with or without adding again at seeding; 3 days + 3 days
Procedure: In the beginning of cultivating NSCs, either compound A or EGF was added into the growth media. The cells were cultivated for 3 days and the cells would aggregate to form neurospheres. One hundred μl of the cell suspension was aspirated and diluted to 1 ml. 250 μl of the supernatant which contained neurospheres was aspirated and placed on the cover slides coated with 30 μg/ml poly-D-lysine (Sigma). After all the cells had been attached onto the slides, the media was removed and replaced with the cultivating media containing compound A (FIG. 5A), EGF (FIG. 5C), or none of the growth factors (FIG. 5B, compound A in the beginning; FIG. 5D, EGF in the beginning). The cells were cultivated for another 3 days at the same condition as described above so that the cells would differentiate into cortical neurons.
The cells were stained with a known immunofluorescent staining method. To stain the neurons, a neurological marker of MAP-2 (microtubule-associated protein 2) antibody was used as the primary antibody and a fluorescent material-labeled mouse immunoglobulin that identified primary antibody was used as the second antibody. After the primary antibody that had been bound onto the neurons was identified and bound by the secondary antibody, the neurons emit fluorescent light under the excitation of a specific light source.

[4] = system: neural stem cells; assay: Continuous cultivation of NSCs for 30 days, cell morphology (Example 7)
Procedure: As in Example 1, the NSCs were cultivated continuously and the growth media were replaced every seven days. DMSO-added growth media were used as the negative control. After 30 days, 100 μl of the cell suspension was aspirated and diluted to 1 ml. 250 μl of the supernatant was aspirated and placed on the slides coated with 30 μg/ml poly-D-lysine (Sigma). The cell morphology was observed thereafter under a microscope.

[5] = system: neural stem cells; assay: Differentiation of NSCs with compound D and EGF, immunofluorescent staining (Example 6); conditions: compound D and EGF in the beginning, only the named substance at seeding
Procedure: The procedures were similar to Example 5. However, in the beginning of cultivating the neural stem cells, both compound D and EGF were added into the media. After all the cells had been attached onto the slides, the media were removed and replaced with the cultivating media containing compound D (FIG. 6B), EGF (FIG. 6C), none of the growth factors (FIG. 6D), or both compound D and EGF (FIG. 6A). The cells were cultivated for another 3 days and the cell morphology was observed thereafter by using immunofluorescent staining technique.

C/C(=C\Cc1c([C@@H]2CC(=O)c3c(O)cc(O)cc3O2)ccc(O)c1O)CCCC(C)(C)O [compound A]
live cells, MTT absorbance at 540 nm [1]: best results
growth of neurons and neurites under microscope ([2]; 2.5 μM): continuous growth of the neurons and the extension of the neurites can be observed
cell type after differentiation (MAP-2 staining) [3]: the cells will differentiate into neurons
sphere formation of neural stem cells after 30 days ([4]; media replaced every seven days, control almost no surviving cells): can maintain the characteristics of forming spherical clusters
differentiation after 30 days culture plus another 3 days (immunofluorescence) ([4]; neurospheres grown 30 days with compound): differentiating normally into neurons with the continuous outgrowth of neurites

C/C(=C\Cc1cc([C@@H]2CC(=O)c3c(O)cc(O)cc3O2)cc(O)c1O)CCCC(C)(C)O [compound B]
growth of neurons and neurites under microscope ([2]; 5 μM): continuous growth of the neurons and the extension of the neurites can be observed

CC(C)=CCC/C(C)=C/Cc1c([C@@H]2CC(=O)c3c(O)cc(O)cc3O2)ccc(O)c1O [compound D]
live cells, MTT absorbance at 540 nm [1]: best results
growth of neurons and neurites under microscope ([2]; 5 μM): continuous growth of the neurons and the extension of the neurites can be observed
cell type after differentiation [5]: the cells will differentiate into neurons

CC(C)=CCC/C(C)=C/Cc1c(O)cc2c(c1O)C(=O)C[C@@H](c1ccc(O)c(O)c1CC=C(C)C)O2 [compound G]
live cells, MTT absorbance at 540 nm [1]: best results
growth of neurons and neurites under microscope ([2]; 5 μM): continuous growth of the neurons and the extension of the neurites can be observed
